The values below are quoted from earlier work in patent US6643591B1, “Use of computational and experimental data to model organic compound reactivity in cytochrome P450 mediated reactions and to optimize the design of pharmaceuticals” (University of Pittsburgh, priority 1998, dated 2003).

For the data set, the system named is CYP1A2. The following applies: O-deethylation favored; cited from earlier work.

In the case of `CCOc1ccc2ccc(=O)oc2c1` [7-ethoxycoumarin], the “Energy difference between O-deethylation and aromatic hydroxylation pathways” value was “about 1.8 kcal/mol”.
